# Measurements taken from patent US20090068290A1, “BIFEPRUNOX DOSES FOR TREATING SCHIZOPHRENIA” (priority 2006, published 2009).
# How the values were obtained:
# [1] = tested on: adult subjects with schizophrenia; assay: Adverse events (TEAE, SAE, discontinuation, EPS-related TEAE, anticholinergic use), Clinical Study One; assay type: in vivo, human; details: for safety and tolerability: bifeprunox 5, 10, 20 mg, 6 weeks
# Experimental: METHODOLOGY: This was a randomized, double-blind, fixed-dose, placebo-controlled, risperidone-referenced, parallel group, multi-center study in adult subjects with schizophrenia. There were five treatment groups in this study. […] Study medication was administered once daily. After Baseline measurements were performed, the titration phase was begun. Bifeprunox treated subjects were titrated up to 5 mg, 10 mg or 20 mg according to a standardized titration schedule (Day 1: 0.125 mg, Day 2: 0.25 mg, Day 3: 0.5 mg, Day 4: 1.0 mg, Day 5: 2.0 mg, Day 6: 5.0 mg, Day 7: 10.0 mg, Day 8: 20 mg).
# [2] = tested on: adult subjects with schizophrenia; assay: Calgary Depression Scale for Schizophrenia (CDSS), Clinical Study Three; assay type: in vivo, human; details: for CDSS Total Score, Trt Effect / Change from Baseline in CDSS Total Score, Mean (SD) / Change from Baseline in CDSS Total Score, Median / mean change (SD) from Baseline to Endpoint in CDSS score: LOCF; for CDSS score, treatment effect (bifeprunox, placebo): Endpoint LOCF; for mean change (SD) from Baseline to Endpoint in CDSS score: ITT
# Source text: SECONDARY OBJECTIVES To assess the efficacy of bifeprunox in treating schizophrenia using the Positive Symptom sub-scale score of the PANSS, the Negative Symptom sub-scale score of the PANSS, the General Psychopathology sub-scale of the PANSS, Brief Psychiatric Rating Scale (BPRS) total score derived from the PANSS, BPRS psychosis score derived from the PANSS, the Clinical Global Impression Severity of Illness score (CGI-S), the Clinical Global Impression Improvement score (CGI-I), CGI-I responder rate, PANSS responder rate based on the PANSS total score, Calgary Depression Scale for Schizophrenia (CDSS), and Subject Satisfaction rating.
# There were four treatment arms in this study, approximately 144 subjects per arm. […] After completing the Single-Blind Placebo Lead-in Period of at least three days, bifeprunox-treated subjects were titrated from 0.25 mg up to 20 mg/day or 30 mg/day according to a standardized titration scheme over a seven- or eight-day period, respectively. When the assigned dose was reached, subjects were maintained at that dose for the remainder of the six week treatment period. […] Subjects were hospitalized (if not already inpatients) after eligibility for study entry was verified, starting from the Screening Visit until at least 10 days after Baseline. Subjects could be hospitalized longer than 10 days if considered medically necessary by the Investigator. Rating scale assessments for efficacy and abnormal movement disorders were done weekly except for Week 5. […] Subject satisfaction with study medication was assessed at Week 6.
# [3] = Pooled metabolic analysis, 6-week studies: body weight; details: for ≧7% weight decrease, (%) / ≧7% weight increase, (%) / Weight, Mean (SD) change from baseline: 6-week placebo controlled trials, BX total doses, RISP 6 mg, OLZ 15 mg, HAL 10 mg; for Weight, Mean (SD) change from baseline: endpoint
# Source text: OBJECTIVE: To examine the metabolic effects of bifeprunox in patients with acute and stable schizophrenia.
# METHODS: Metabolic data was compiled from one 6-month and four 6-week studies (i.e., a treatment period) of bifeprunox in patients with stable and acute schizophrenia, respectively. In the 6-month study, patients received bifeprunox (n=331) or placebo (PBO) (n=166). […] Metabolic evaluations included body weight, body mass index (BMI), plasma glucose and lipid profiles. Fasting glucose and lipid values were assessed in one 6-week study and in the 6-month study. Triglyceride:HDL ratio (TG:HDL) was calculated as a marker of insulin resistance. No statistical analyses were performed; only descriptive statistics are presented.
structure (smiles),measurement,setting,value
"O=c1[nH]c2cccc(N3CCN(Cc4cccc(-c5ccccc5)c4)CC3)c2o1 [Bifeprunox, 7-[4-([1,1′-biphenyl]-3-ylmethyl)-1-piperazinyl]-2(3H)-benzoxazolone]","Hyperactivity Syndrome Aggravated, %",[1]; BX 10 mg,(<1%)
same,"Loss of Propriception, %",[1]; BX 10 mg,(<1%)
same,"Migraine Nos, %",[1]; BX 10 mg,(<1%)
same,"PSYCHIATRIC DISORDERS, %",[1]; BX 10 mg,(32%)
same,"SEDATION, %",[1]; BX 10 mg,(8%)
same,"SOMNOLENCE, %",[1]; BX 10 mg,(2%)
same,"Syncope, %",[1]; BX 10 mg,(3%)
same,"TARDIVE DYSKINESIA, %",[1]; BX 10 mg,(<1%)
same,"Adjustment Disorder Nos, %",[1]; BX 20 mg,(<1%)
same,"Affect Lability, %",[1]; BX 20 mg,(<1%)
same,"Aggression, %",[1]; BX 20 mg,(<1%)
same,"Agitation Aggravated, %",[1]; BX 20 mg,(<1%)
same,"Agitation, %",[1]; BX 20 mg,(11%)
same,"Anxiety Aggravated, %",[1]; BX 20 mg,(2%)
same,"Anxiety, %",[1]; BX 20 mg,(6%)
same,"Bruxism, %",[1]; BX 20 mg,(<1%)
same,"Confusion, %",[1]; BX 20 mg,(<1%)
same,"DIZZINESS, %",[1]; BX 20 mg,(7%)
same,"DYSARTHRIA, %",[1]; BX 20 mg,(<1%)
same,"Disturbance in Attention, %",[1]; BX 20 mg,(<1%)
same,"Dystonia, %",[1]; BX 20 mg,(<1%)
same,"EXTRAPYRAMIDAL DISORDER, %",[1]; BX 20 mg,(2%)
same,"Headache Nos, %",[1]; BX 20 mg,(25%)
same,"Hypoaesthesia, %",[1]; BX 20 mg,(<1%)
same,"Memory Impairment, %",[1]; BX 20 mg,(3%)
same,"Oculogyric Crisis, %",[1]; BX 20 mg,(<1%)
same,"PSYCHIATRIC DISORDERS, %",[1]; BX 20 mg,(40%)
same,"Parkinsonism, %",[1]; BX 20 mg,(<1%)
same,"SEDATION, %",[1]; BX 20 mg,(9%)
same,"SOMNOLENCE, %",[1]; BX 20 mg,(5%)
same,"Syncope, %",[1]; BX 20 mg,(2%)
same,"TARDIVE DYSKINESIA, %",[1]; BX 20 mg,(<1%)
same,"TREMOR, %",[1]; BX 20 mg,(<1%)
same,subjects with at least one AE that led to discontinuation,[1]; bifeprunox 5 mg,11%
same,subjects with at least one TEAE,[1]; bifeprunox 5 mg,89%
same,subjects with at least one AE that led to discontinuation,[1]; bifeprunox 10 mg,14%
same,subjects with at least one TEAE,[1]; bifeprunox 10 mg,87%
same,incidence of aggravated schizophrenia NOS (SAE),[1]; bifeprunox 20 mg,7%
same,subjects with at least one AE that led to discontinuation,[1]; bifeprunox 20 mg,10%
same,subjects with at least one TEAE,[1]; bifeprunox 20 mg,83%
same,subjects with at least one severe TEAE,[1]; bifeprunox 20 mg,10%
same,suicide attempt,[1]; bifeprunox 20 mg,2%
same,safety and tolerability,[1],safe and well tolerated at all dose levels
same,safety and tolerability,[1]; listed as bifeprunox,safe and well tolerated
same,subjects with at least one SAE,"[1]; bifeprunox groups (5, 10, 20 mg)",12-15%
same,rates of EPS,"[1]; bifeprunox, 6 weeks (Example 4)",comparable to placebo
same,"CDSS Total Score, Trt Effect","[2]; 20 mg versus placebo, Week 6, Endpoint",−0.54
same,"Change from Baseline in CDSS Total Score, Mean (SD)","[2]; 20 mg, Week 1",−0.86 (2.87)
same,"Change from Baseline in CDSS Total Score, Median","[2]; 20 mg, Week 1",0.0
same,"Change from Baseline in CDSS Total Score, Mean (SD)","[2]; 20 mg, Week 2",−1.19 (3.30)
same,"Change from Baseline in CDSS Total Score, Median","[2]; 20 mg, Week 2",−1.0
same,"Change from Baseline in CDSS Total Score, Mean (SD)","[2]; 20 mg, Week 3",−1.41 (3.72)
same,"Change from Baseline in CDSS Total Score, Median","[2]; 20 mg, Week 3",−1.0
same,"Change from Baseline in CDSS Total Score, Mean (SD)","[2]; 20 mg, Week 4",−1.35 (3.66)
same,"Change from Baseline in CDSS Total Score, Median","[2]; 20 mg, Week 4",−1.0
same,"Change from Baseline in CDSS Total Score, Mean (SD)","[2]; 20 mg, Week 6, Endpoint",−1.30 (3.85)
same,"Change from Baseline in CDSS Total Score, Median","[2]; 20 mg, Week 6, Endpoint",0.0
same,"CDSS Total Score, Trt Effect","[2]; 30 mg versus placebo, Week 6, Endpoint",−0.34
same,"Change from Baseline in CDSS Total Score, Mean (SD)","[2]; 30 mg, Week 1",−0.77 (2.63)
same,"Change from Baseline in CDSS Total Score, Median","[2]; 30 mg, Week 1",0.0
same,"Change from Baseline in CDSS Total Score, Mean (SD)","[2]; 30 mg, Week 2",−0.69 (2.97)
same,"Change from Baseline in CDSS Total Score, Median","[2]; 30 mg, Week 2",0.0
same,"Change from Baseline in CDSS Total Score, Mean (SD)","[2]; 30 mg, Week 3",−0.60 (3.10)
same,"Change from Baseline in CDSS Total Score, Median","[2]; 30 mg, Week 3",0.0
same,"Change from Baseline in CDSS Total Score, Mean (SD)","[2]; 30 mg, Week 4",−0.65 (3.07)
same,"Change from Baseline in CDSS Total Score, Median","[2]; 30 mg, Week 4",0.0
same,"Change from Baseline in CDSS Total Score, Mean (SD)","[2]; 30 mg, Week 6, Endpoint",−0.79 (3.02)
same,"Change from Baseline in CDSS Total Score, Median","[2]; 30 mg, Week 6, Endpoint",−1.0
same,"CDSS score, treatment effect (bifeprunox, placebo)",[2]; bifeprunox 20 mg (first mention),−0.54
same,mean change (SD) from Baseline to Endpoint in CDSS score,[2]; bifeprunox 20 mg,−1.30 (3.85)
same,mean change (SD) from Baseline to Endpoint in CDSS score,[2]; bifeprunox 30 mg,−0.79 (3.02)
same,"CDSS score, treatment effect (bifeprunox, placebo)",[2]; bifeprunox,−0.34
same,"≧7% weight decrease, (%)",[3]; baseline BMI 18.5-25 kg/m^2,5.4%
same,"≧7% weight increase, (%)",[3]; baseline BMI 18.5-25 kg/m^2,2.4%
same,"≧7% weight decrease, (%)",[3]; baseline BMI <18.5 kg/m^2,3.7%
same,"≧7% weight increase, (%)",[3]; baseline BMI <18.5 kg/m^2,3.7%
same,"≧7% weight decrease, (%)",[3]; baseline BMI >25-30 kg/m^2,8.8%
same,"≧7% weight increase, (%)",[3]; baseline BMI >25-30 kg/m^2,1.8%
same,"≧7% weight decrease, (%)",[3]; baseline BMI >30 kg/m^2,5.8%
same,"≧7% weight increase, (%)",[3]; baseline BMI >30 kg/m^2,1.4%
same,"≧7% weight decrease, (%)",[3]; baseline BMI All,6.2%
same,"≧7% weight increase, (%)",[3]; baseline BMI All,2.1%
same,"Weight, Mean (SD) change from baseline",[3]; baseline BMI 18.5-25 kg/m^2,−0.4 (2.6) kg
same,"Weight, Mean (SD) change from baseline",[3]; baseline BMI <18.5 kg/m^2,0.0 (1.7) kg
same,"Weight, Mean (SD) change from baseline",[3]; baseline BMI >25-30 kg/m^2,−0.9 (3.2) kg
same,"Weight, Mean (SD) change from baseline",[3]; baseline BMI >30 kg/m^2,−1.4 (3.9) kg
same,"Weight, Mean (SD) change from baseline",[3]; baseline BMI All,−0. (3.2) kg
same,mean weight decrease,"[3]; 6-week studies, pooled",0.8 kg
same,mean weight change,"[3]; 6-week studies, pooled (overall summary)",-0.8 kg
same,mean change in weight at endpoint,"[3]; 6-week studies, patients with nausea or vomiting",-1.7 kg
same,mean change in weight at endpoint,"[3]; 6-week studies, patients without nausea or vomiting",-0.4 kg
